{
  "source": "patent US8735434B2",
  "about": "“Compounds as cannabinoid receptor ligands” (priority 2007, dated 2014)",
  "origin": "cited, not measured here",
  "key": {"[1]": {"test_system": "animal models", "settings": "acute thermal pain, persistent pain, inflammatory pain, neuropathic pain"}, "[2]": {"test_system": "rodent models", "settings": "neuropathic, incisional, chronic and acute inflammatory pain"}, "[3]": {"test_system": "rat", "settings": "rat formalin model of persistent pain"}, "[4]": {"test_system": "microglial", "settings": "in vitro"}, "[5]": {"test_system": "apolipoprotein E knockout mice"}, "[6]": {"test_system": "mice", "settings": "model for post-menopausal osteoporosis"}, "[7]": {"test_system": "osteoclast"}},
  "data": [
    {"compound": "CN1CCCCC1Cn1cc(C(=O)c2cc([N+](=O)[O-])ccc2I)c2ccccc21", "note": "(stereo not drawn) [AM-1241]", "values": [
      {"measurement": "analgesic efficacy", "setting": "[1]", "value": "robust analgesic efficacy"}
    ]},
    {"compound": "COc1ccc2c(c1)c(CCN1CCOCC1)c(C)n2C(=O)c1cccc(Cl)c1Cl", "note": "[GW405833]", "values": [
      {"measurement": "efficacy in pain models", "setting": "[2]", "value": "efficacious"}
    ]},
    {"compound": "CCCCCCC(C)(C)c1cc(OC)c([C@@H]2C=C(CO)[C@@H]3C[C@H]2C3(C)C)c(OC)c1", "note": "[HU-308]", "values": [
      {"measurement": "antinociceptive response", "setting": "[3]", "value": "elicits an antinociceptive response"}
    ]},
    {"compound": "CCCC(C)(C)c1ccc2c(c1)OC(C)(C)[C@@H]1CC=C(C)C[C@@H]21", "note": "[JWH-133]", "values": [
      {"measurement": "effect on β-amyloid-induced microglial activation and neurotoxicity", "setting": "[4]", "value": "abrogated"}
    ]},
    {"compound": "(−)-Δ^9-Tetrahydrocannabinol [THC]", "values": [
      {"measurement": "progression of atherosclerotic lesions", "setting": "[5]; low doses", "value": "slowed the progression of atherosclerotic lesions"}
    ]},
    {"compound": "SR144528", "values": [
      {"measurement": "effect on ovariectomy-induced bone loss", "setting": "[6]", "value": "reverse ovariectomy-induced bone loss"},
      {"measurement": "inhibition of the THC effects on atherosclerotic lesions", "setting": "[5]; against THC", "value": "these effects were inhibited"},
      {"measurement": "effect on osteoclast activity", "setting": "[7]", "value": "inhibit osteoclast activity"},
      {"measurement": "block of the JWH-133 effects on microglial activation and neurotoxicity", "setting": "[4]; against JWH-133", "value": "can be blocked"}
    ]}
  ]
}
